ChEMBL document CHEMBL6087461, “Cell-Permeable Peptide Inhibitors of the p53-hDM2 Interaction via Foldamer Helix Mimicry and Bis-Thioether Stapling” (J Med Chem, 2025)
Calls of active or inactive are those of the source. The calls are words filed in the database; no cut-off is given here. Starred links: 1 amine or outer side, 2 acyl side, 3 side chain; linkers in the order of their positions; H or OH if unused. Positions of bridges follow the written chain, without caps; N, C: chain ends. Residues, ends and D or L forms follow the SMILES beside them. X1 = CC(C)[C@@H](CNC(N)=O)NC(=O)NC[C@H](C)NC(=O)NC[C@H](CSCCCCCC[*:1])N[*:2]

Key:
HCT-116 [1] = assay: Induction of p53 level in human HCT-116 cells expressing wild type p53 measured after 6 hrs by Western blotting analysis; format: functional, cell-based; conditions: dose 0.1-40 µM
HCT-116 [2] = assay: Induction of hDM2 RNA level in human HCT-116 cells expressing wild type p53 measured after 6 hrs by RT-qPCR analysis; format: functional, cell-based; conditions: dose 0.1-10 µM
HCT-116 [3] = assay: Induction of P21 RNA level in human HCT-116 cells expressing wild type p53 measured after 6 hrs by RT-qPCR analysis; format: functional, cell-based; conditions: dose 0.1-10 µM
[4] = PROTAC activity at human DM2/p53 extracted from Escherichia coli interaction by measuring inhibition of interaction by time-resolved fluorescence energy transfer (TRFRET) detection method
HCT-116 [5] = assay: Cytotoxicity against human HCT-116 cells assessed as cell viability at 0.1 to 40 uM measured after 2 hrs incubation by LDH release assay; format: functional, cell-based; conditions: dose 0.1-40 µM
[6] = target: Tumour suppressor protein p53/Mdm4 (Homo sapiens, UniProt O15151); assay: PROTAC activity at human DMX/p53 extracted from Escherichia coli interaction by measuring inhibition of interaction by time-resolved fluorescence energy transfer (TRFRET) detection method; format: protein assay
MCF7 = assay: Cytotoxicity against human MCF7 cells expressing wild type p53 and overexpressing human DMX assessed as cell viability measured after 72 hrs incubation by MTS cell viability assay; format: functional, cell-based; conditions: MCF7, 72 h
HCT-116 [7] = assay: Effect on increase in […] RNA level in human HCT-116 cells at 10 uM measured after 6 hrs by RT-qPCR analysis; format: functional, cell-based
SW480 [8] = assay: Cytotoxicity against human SW480 cells expressing lower level of human DM2 assessed as cell viability measured after 72 hrs incubation by MTS cell viability assay; format: functional, cell-based
HCT-116 [9] = assay: Cytotoxicity against human HCT116 cells expressing wild type p53 and overexpressing human DM2 assessed as cell viability measured after 72 hrs incubation by MTS cell viability assay; format: functional, cell-based; conditions: HCT-116, 72 h
SW480 [10] = assay: Cytotoxicity against human SW480 cells expressing p53 mutant and overexpressing human DM2 assessed as cell viability measured after 72 hrs incubation by MTS cell viability assay; format: functional, cell-based
HCT-116 [11] = assay: Effect on increase in wild type p53 level in human HCT-116 cells at 10 uM measured after 6 hrs by Western blot analysis; format: functional, cell-based
HCT-116 [12] = assay: Effect on increase in p21 RNA level in human HCT-116 cells at 10 uM measured after 6 hrs by RT-qPCR analysis; format: functional, cell-based
SW480 [13] = assay: Cytotoxicity against human SW480 cells expressing […] assessed as cell viability at 0.1 to 40 uM measured after 72 hrs incubation by MTS cell viability assay; format: functional, cell-based; conditions: dose 0.1-40 µM
[14] = target: Tumour suppressor p53/oncoprotein Mdm2 (Homo sapiens) (UniProt P04637+Q00987); assay: PROTAC activity at human MDM2/p53 extracted from Escherichia coli interaction by measuring inhibition of interaction at 100 nM by time-resolved fluorescence energy transfer (TRFRET) detection method relative to control; format: protein assay
[15] = target: Tumour suppressor protein p53/Mdm4 (Homo sapiens) (UniProt P04637+O15151); assay: PROTAC activity at human DMX/p53 extracted from Escherichia coli interaction at 100 nM by measuring inhibition of interaction by time-resolved fluorescence energy transfer (TRFRET) detection method relative to control; format: protein assay
Tumour suppressor protein p53/Mdm4 (Homo sapiens), sequence (O15151 whole entry, looked up): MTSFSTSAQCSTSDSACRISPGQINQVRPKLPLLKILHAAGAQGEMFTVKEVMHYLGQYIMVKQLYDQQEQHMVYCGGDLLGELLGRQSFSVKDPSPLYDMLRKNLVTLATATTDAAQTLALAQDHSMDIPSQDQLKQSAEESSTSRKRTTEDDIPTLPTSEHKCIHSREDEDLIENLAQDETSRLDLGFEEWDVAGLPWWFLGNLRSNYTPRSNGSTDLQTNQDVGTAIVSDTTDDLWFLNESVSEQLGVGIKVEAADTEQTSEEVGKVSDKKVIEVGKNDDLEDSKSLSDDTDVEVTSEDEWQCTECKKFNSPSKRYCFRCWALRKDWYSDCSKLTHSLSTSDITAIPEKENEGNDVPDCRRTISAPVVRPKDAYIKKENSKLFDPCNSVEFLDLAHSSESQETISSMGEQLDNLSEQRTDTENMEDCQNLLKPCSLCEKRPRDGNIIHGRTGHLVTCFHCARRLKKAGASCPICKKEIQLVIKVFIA
Tumour suppressor protein p53/Mdm4 (Homo sapiens), sequence (P04637 whole entry, looked up): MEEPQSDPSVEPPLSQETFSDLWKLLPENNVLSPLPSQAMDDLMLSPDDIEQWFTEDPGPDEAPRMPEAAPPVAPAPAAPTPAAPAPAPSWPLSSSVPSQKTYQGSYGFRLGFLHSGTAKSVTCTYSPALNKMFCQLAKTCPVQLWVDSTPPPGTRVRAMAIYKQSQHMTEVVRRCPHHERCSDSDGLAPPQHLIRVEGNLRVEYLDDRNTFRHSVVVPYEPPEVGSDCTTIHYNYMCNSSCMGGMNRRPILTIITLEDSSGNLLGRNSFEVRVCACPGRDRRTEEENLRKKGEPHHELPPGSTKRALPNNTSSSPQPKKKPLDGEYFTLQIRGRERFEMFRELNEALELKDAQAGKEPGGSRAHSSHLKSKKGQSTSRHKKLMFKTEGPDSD

Tumour suppressor protein p53/Mdm4, sequence (P04637 whole entry): as the sequence (P04637 whole entry, looked up) above
Tumour suppressor protein p53/Mdm4, sequence (O15151 whole entry): as the sequence (O15151 whole entry, looked up) above
Tumour suppressor p53/oncoprotein Mdm2 (Homo sapiens), sequence (P04637 whole entry, looked up): as the sequence (P04637 whole entry, looked up) above
Tumour suppressor p53/oncoprotein Mdm2 (Homo sapiens), sequence (Q00987 whole entry, looked up): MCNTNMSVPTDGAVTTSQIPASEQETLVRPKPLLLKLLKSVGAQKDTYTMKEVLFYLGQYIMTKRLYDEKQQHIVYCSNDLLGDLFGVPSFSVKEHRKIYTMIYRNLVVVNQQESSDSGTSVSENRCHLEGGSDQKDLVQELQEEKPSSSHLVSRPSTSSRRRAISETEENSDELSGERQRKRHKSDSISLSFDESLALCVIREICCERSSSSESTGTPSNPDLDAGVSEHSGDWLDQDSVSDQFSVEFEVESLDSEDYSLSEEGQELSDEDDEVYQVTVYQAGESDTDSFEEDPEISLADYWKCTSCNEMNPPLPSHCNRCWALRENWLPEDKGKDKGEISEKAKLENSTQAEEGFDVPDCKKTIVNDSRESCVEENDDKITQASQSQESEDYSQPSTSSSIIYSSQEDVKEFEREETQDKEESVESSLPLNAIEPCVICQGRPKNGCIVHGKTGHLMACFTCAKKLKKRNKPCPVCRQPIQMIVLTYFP

Row | SMILES | Activity (HCT-116 [1]) | Activity (HCT-116 [2]) | Activity (HCT-116 [3]) | IC50 [4] [µM] | Activity (HCT-116 [5]) | IC50 [6] [µM] | IC50 (MCF7) [µM] | Activity (HCT-116 [7]) | Activity (SW480 [8]) | IC50 (HCT-116 [9]) [µM] | Activity (SW480 [10]) | Activity (HCT-116 [11]) | Activity (HCT-116 [12]) | Activity (SW480 [13]) | inhibition [14] | Activity [15]
1 | CC(=O)N[C@@H](CCCCN)C(=O)N[C@H](C(=O)N[C@@H](Cc1ccccc1)C(=O)N[C@H]1CSCCCCCCSC[C@@H](CNC(=O)N[C@@H](C)CNC(=O)N[C@H](CNC(N)=O)C(C)C)NC(=O)[C@H](Cc2c[nH]c3ccccc23)NC(=O)[C@H](Cc2ccc(O)cc2)NC(=O)[C@H](CCC(=O)O)NC1=O)[C@@H](C)O (Ac-KTFCEYW; linker 4-C via X1) | Dose-dependent-effect; Similar To Nutlin-3A | Dose-dependent-effect | Dose-dependent-effect | 0.00924 | Not active; Indicating Absence Of Direct Effect On Cell Membranes | 73.3 | – | – | – | – | – | – | – | – | – | –
2 | CC(C)[C@@H](CNC(N)=O)NC(=O)NC[C@H](C)NC(=O)NC[C@@H]1CSCCCCCCSC[C@H](NC(=O)[C@H](Cc2ccccc2)NC(=O)[C@H](CO)NC(=O)[C@H](CCCCN)NC(=O)[C@H](CCCNC(=N)N)NC(=O)[C@H](CCCNC(=N)N)NC(=O)[C@@H](N)CCCNC(=N)N)C(=O)N[C@@H](CCC(=O)O)C(=O)N[C@@H](Cc2ccc(O)cc2)C(=O)N[C@@H](Cc2c[nH]c3ccccc23)C(=O)N1 (H-RRRKSFCEYW; linker 7-C via X1) | – | – | – | 0.0046 | – | 22 | 3.98 | inactive | Active | 3.86 | Active | inactive | inactive | – | – | –
3 | CC(=O)N[C@@H](CC(C)C)C(=O)N[C@H](C(=O)N[C@@H](Cc1ccccc1)C(=O)N[C@H]1CSCCCCCCSC[C@@H](CNC(=O)N[C@@H](C)CNC(=O)N[C@H](CNC(N)=O)C(C)C)NC(=O)[C@H](Cc2c[nH]c3ccccc23)NC(=O)[C@H](Cc2ccc(O)cc2)NC(=O)[C@H](CCC(=O)O)NC1=O)[C@@H](C)O (Ac-LTFCEYW; linker 4-C via X1) | Dose-dependent-effect; Similar To Nutlin-3A And Able To Increase As Low As 0.5 Um | Dose-dependent-effect | Dose-dependent-effect | 0.0158 | Not active; Indicating Absence Of Direct Effect On Cell Membranes | 262 | – | – | – | – | – | – | – | – | – | –
4 | CC(C)[C@@H](CNC(N)=O)NC(=O)NC[C@H](C)NC(=O)NC[C@@H]1CSCCCCCCSC[C@H](NC(=O)[C@H](Cc2ccccc2)NC(=O)[C@H](CO)NC(=O)[C@@H](NC(=O)[C@H](CCCCN)NC(=O)[C@@H](N)CCCCN)[C@@H](C)O)C(=O)N[C@@H](CCC(=O)O)C(=O)N[C@@H](Cc2ccc(O)cc2)C(=O)N[C@@H](Cc2c[nH]c3ccccc23)C(=O)N1 (H-KKTSFCEYW; linker 6-C via X1) | – | – | – | 0.0102 | – | 62.7 | – | – | – | – | – | – | – | Active | inactive | inactive
